For assay [1], the target named is T1, Dihydrofolate reductase (Pneumocystis carinii, UniProt P16184).
T1 sequence (P16184 whole entry): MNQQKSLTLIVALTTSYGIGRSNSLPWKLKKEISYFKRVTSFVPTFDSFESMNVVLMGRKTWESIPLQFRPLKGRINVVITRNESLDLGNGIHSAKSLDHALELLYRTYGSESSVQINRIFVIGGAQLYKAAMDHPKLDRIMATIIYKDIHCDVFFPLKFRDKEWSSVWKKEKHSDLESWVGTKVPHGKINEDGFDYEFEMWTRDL
Description: Inhibition of Pneumocystis carinii DHFR using dihydrofolic acid substrate and NADPH cofactor

Assay [2] concerns LOX IMVI. In words: cells. The settings on record: Homo sapiens.
Description: Cytotoxicity against human LOXIMVI cells
In assay [3] the test system is HT-29. In words: cells. The settings on record: Homo sapiens.
Description: Cytotoxicity against human HT29 cells
Assay [4] deals with MOLT-4. In words: cells. The settings on record: Homo sapiens.
Description: Cytotoxicity against human MOLT4 cells
Assay [5] relates to CAKI-1. In words: cells. The settings on record: Homo sapiens.
Description: Cytotoxicity against human CAKI1 cells
The nature of assay [6]: cells. The settings on record: Homo sapiens, HL-60.
Description: Cytotoxicity against human HL60(TB) cells
For assay [7], the system named is SF-268. In words: cells. The settings on record: Homo sapiens.
Description: Cytotoxicity against human SF268 cells
Assay [8] concerns NCI-H460. Put plainly: cells. The settings on record: Homo sapiens.
Description: Cytotoxicity against human NCI-H460 cells
For assay [9], the system named is SW-620. Put plainly: cells. The settings on record: Homo sapiens.
Description: Cytotoxicity against human SW620 cells
The test system of assay [10] is MCF7. In words: cells. The settings on record: Homo sapiens.
Description: Cytotoxicity against human MCF7 cells
Assay [11] has as its system ACHN. Put plainly: cells. The settings on record: Homo sapiens.
Description: Cytotoxicity against human ACHN cells
In assay [12] the test system is 786-0. Put plainly: cells. The settings on record: Homo sapiens.
In assay [13] the test system is PC-3. Put plainly: cells. The settings on record: Homo sapiens.
Description: Cytotoxicity against human PC3 cells
For assay [14], the target named is T2, Dihydrofolate reductase (Rattus norvegicus, UniProt Q920D2).
T2 sequence (Q920D2 whole entry): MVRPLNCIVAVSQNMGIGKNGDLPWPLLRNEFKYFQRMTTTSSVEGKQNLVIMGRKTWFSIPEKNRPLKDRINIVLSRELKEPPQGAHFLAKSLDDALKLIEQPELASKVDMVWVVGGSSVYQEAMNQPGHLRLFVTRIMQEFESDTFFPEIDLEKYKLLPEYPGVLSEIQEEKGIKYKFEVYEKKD

In assay [15] the test system is K562. Put plainly: cells. The settings on record: Homo sapiens.
Description: Cytotoxicity against human K562 cells

The structures appear in SMILES notation. A value given as a limit tells only on which side of the number the result lay.

In the case of `CCCc1c(Sc2ccc(C(=O)N[C@@H](CCC(=O)O)C(=O)O)cc2)[nH]c2nc(N)nc(N)c12`, the IC50 in assay [1] worked out at 3.11 nM; in [14], 60 nM. The GI50 in [2] is less than 10 nM; in [3] it was 9580 nM; in [4] it was 19400 nM; in assay [5] it was 376 nM; in assay [6], 1280 nM; in assay [7] it was 1610 nM. For the same compound, the GI50 in assay [8] was 267 nM; in assay [9] it was 1210 nM; in assay [10] it was 164 nM; in assay [11] it was 15200 nM; in assay [12], 12.8 nM; in assay [13] it was greater than 100000 nM. The compound also showed a GI50 in assay [15] of 952 nM.
